These are literature values, as cited in patent US20230210793A1 (priority 2021, published 2023).

As to `O=NN(CCCl)C(=O)NCCCl` [Carmustine, 1,3-bis(2-chloroethyl)-1-nitrosourea], the solubility in water result is “poorly soluble”.
